In publication PMC4164784, “4E-BPs require non-canonical 4E-binding motifs and a lateral surface of eIF4E to repress translation” (Nature Communications, 2014):
Blank lines part the entries; values can stand above or below the molecule they belong to.

What was measured:
[1] = test system: endogenous eIF4E and HA-tagged 4E-BPs in S2 cells; test: Immunofluorescence localization in S2 cells; format: cell-based, Drosophila melanogaster; details: S2 cells, LMB 100 nM, 12 h
CRM1 = test system: CRM1; set-up: method as in PMID 15465908, PMID 10856257, PMID 9190288; details: cited from earlier work
eIF4E = details: 4E-BP1,2 non-canonical motifs; cited from earlier work
From the text: The immunoprecipitation assays shown in Fig. 1e–g indicate that similar to CUP, Thor and 4E-T contain NC motifs that interact with the lateral binding surface of eIF4E. In human 4E-BP1,2, the NC IPGVTS/T motif (located C-terminally to the C motif), increases the binding affinity of the proteins for eIF4E by approximately three orders of magnitude. However, the IPGVTS/T motif is not conserved across the animal kingdom (Supplementary Fig. 2c). Nevertheless, several hydrophobic residues are present in the corresponding region in Dm Thor (residues Pro76–Pro84; Supplementary Fig. 2c). || Owing to their lack of conservation, it has remained unclear whether non-canonical motifs are present in all 4E-BPs[38]. […] At the functional level, non-canonical motifs have been proposed to play an auxiliary role and have been mainly implicated in the regulation of the affinity of eIF4E for the mRNA cap structure through allosteric effects. Specifically, the binding of the 4E-BP1,2 non-canonical ...

[2] = test system: eIF4E II-AA mutant bound to GST-4E-BP; test: Competition by MBP-eIF4G with 4E-BPs bound to eIF4E II-AA mutant; format: biochemical, Drosophila melanogaster; details: 30 min at 4 °C
Protocol: (§1) For the competition assays shown in Figs 5a,c and 6a,b, complexes containing SHN- or MBP-tagged eIF4E (WT or II-AA mutant) bound to GST-eIF4G (residues 578–650), GST-Thor (full length), GST-4E-T (residues 1–58) or GST-CUP (311–440) were obtained by coexpressing the corresponding proteins in E. coli BL21 (DE3) STAR cells (30 ml culture). The cells were resuspended in lysis buffer (5 ml) that was supplemented with EDTA-free protease inhibitor (Roche) and 1 mg ml^−1 lysozyme and lysed by sonication. The cleared lysates were incubated with 400 μl of Protino Glutathione Agarose 4B (Macherey-Nagel) for 1 h. The beads were washed three times with lysis buffer, and the proteins were eluted after 10 min of incubation with lysis buffer containing 25 mM L-glutathione. The protein complexes were stored at −20 °C or used in competition assays.
(§2) The purified recombinant complexes were mixed with excess amounts of the indicated purified competitor proteins (Fig. 5c) or with bacterial lysates expressing the competitor proteins (Figs 5a and 6) and incubated for 30 min at 4 °C. After incubation, 20 μl of immobilized γ-Aminophenyl-m^7GTP or Strep-Tactin Sepharose (IBA), were added to the samples and incubated for another 40 min at 4 °C. […] The proteins were analyzed by 10–15% SDS–PAGE followed by staining with Coomassie blue staining.

[3] = test system: eIF4E (WT) bound to GST-CUP, GST-Thor, GST-4E-T or GST-eIF4G; test: Competition by MBP-eIF4G with 4E-BPs or eIF4G bound to WT eIF4E; format: biochemical, Drosophila melanogaster; details: excess MBP-eIF4G (residues 578–650), 30 min at 4 °C, Strep-Tactin pull down
Protocol: as §1, §2

Molecule: CCC(=C/[C@H](C)C/C=C/C(C)=C/[C@@H](C)C(=O)[C@@H](C)[C@H](O)[C@@H](C)C/C(C)=C/C(=O)O)/C=C/[C@@H]1OC(=O)C=C[C@@H]1C [LMB, Leptomycin B, reference compound]
nuclear accumulation of 4E-BP upon LMB (in words) [1]: induced the nuclear accumulation of CUP and 4E-T proteins
inhibition of nuclear export by CRM1 (in words) (CRM1): inhibits nuclear export by CRM1

Molecule: human 4E-BP1,2: human eIF4E-binding proteins 1 and 2 with NC IPGVTS/T motif
effect of NC motif binding on affinity of eIF4E for the cap structure (in words) (eIF4E): increases the affinity for the cap structure

displacement of CUP bound to eIF4E II-AA (in words) ([2]; excess MBP-eIF4G (residues 578–650) vs GST-CUP (311–440)): partially displaced CUP
displacement of Thor bound to eIF4E II-AA (in words) ([2]; excess MBP-eIF4G (residues 578–650) vs GST-Thor (full length)): completely displaced full-length Thor
B1: MBP-eIF4G: MBP-eIF4G (residues 578–650) (protein)
chain: PETTLNDKQDSTDLKVKVSAKISSIINYNEGQWSPNNPSGKKQYDREQLLQLREVKASRIQPEVKNVSILPQP
modifications: left off: MBP, N-terminal, kept | GB1, C-terminal, kept
displacement of proteins bound to WT eIF4E (in words) [3]: did not displace CUP, Thor, 4E-T or eIF4G bound to WT eIF4E
